Measurements published in US20100190832A1, “Mechanism-based inhibitors of transthyretin amyloidosis: studies with biphenyl ethers and structural templates” (NATIONAL INSTITUTE OF IMMUNOLOGY., priority 2008, published 2010).
Like-named read-outs stand apart in the source and are kept apart here.

Target: T1, WT-TTR (Homo sapiens, UniProt P02766)
T1 construct: made in house
Assay: Stagnant acid-mediated TTR aggregation (fibril formation) assay, turbidity at 340 nm
Type: biochemical
Details: for remaining activity at 100 µM / remaining activity at 50 µM: 72 h; for remaining activity at 100 µM / inhibition at 100 µM: pH 4.4, compound 100 μM, pH 4.4, 37° C.; for remaining activity at 100 µM: read-out: % FF; for inhibition at 100 µM: read-out: % Inhibition; for remaining activity at 50 µM: read-out: % FF at 50 μM
Method: Stagnant Acid-Mediated TTR Aggregation Assay.
After 1 h, the samples were diluted with 0.5 ml of 200 mM sodium acetate buffer containing 100 mM KCl and 1 mM EDTA. Samples after mild vortexing were incubated at 37° C. for the desired amount of time without stirring to evaluate the efficacy of the inhibitors. The extent of aggregation was probed by turbidity measurements at 340 nm using Tecan GENios microplate reader. […] The extent of TTR fibril formation in the absence of inhibitor was defined to be 100%. […] All experiments were done in triplicate. […] The IC50 was determined by plotting mean of % inhibition vs log and fitted to sigmoid equation:
The experiments were conducted at 25° C. After 1 h, the samples were diluted with 0.5 mL of 200 mM sodium acetate buffer pH 4.4 containing 100 mM KCl and 1 mM EDTA, vortexed, and incubated at 37° C. for 72 h. […] The stoichiometry of the binding of the inhibitors was determined by HPLC as described by Green et al., N. S. Palaninathan, S, L, Sacchettini, J. e. […] Dissociation constant of binding of these compounds to TTR was determined by fluorescence titration, and data were fitted into the Adair equation for two bind mg.

[1] = biphenyl ether 50 μM, WT-TTR 7.2 μM

| SMILES | remaining activity at 100 µM (WT-TTR 7.2 μM) [%] | inhibition at 100 µM (WT-TTR 7.2 μM) [%] | remaining activity at 50 µM [1] [%] | remaining activity at 50 µM [%] | IC50 (Table 3, WT-TTR 7.2 μM, read-out: IC50) [µM] |
| --- | --- | --- | --- | --- | --- |
| O=C1OC(/C=C/c2ccc(Cl)cc2Cl)=NC/1=C\c1cccs1 [Compound K088-1892] | 294 | 0 |  |  |  |
| O=C1NC(=S)S/C1=C\c1ccc(-c2cc(Cl)ccc2Cl)o1 [Compound 3062-0073] | 286 | 0 |  |  |  |
| Cc1ccn2c(Nc3ccc(F)cc3)c(-c3ccccn3)nc2c1 [Compound C273-0218] | 162 | 0 |  |  |  |
| Clc1ccccc1C1CC(c2cccs2)Nc2nnnn21 (stereo not drawn) [Compound K832-3346] | 0 | 100 |  |  |  |
| O=C(O)C1CSC(c2cccnc2)N1 (stereo not drawn) [Compound K085-0021] | 144 | 0 |  |  |  |
| O=C(c1cnc(Nc2ccc(F)cc2)c2ccccc12)n1ccnc1 [Compound C066-1627] |  | 0 |  |  |  |
| Cc1nc2c(ccc3ccccc32)c(O)c1CN(C)Cc1ccccc1 [Compound 3453-1353] | 105 | 0 |  |  |  |
| O=[N+]([O-])c1ccc(Cl)cc1Sc1nc2ccccc2s1 [Compound 2369-0691] | 8.2 | 91.8 |  |  |  |
| CCOC(=O)c1c(N)sc(C(=O)NC2CCCCC2)c1C [Compound R052-1597] | 58.1 | 41.9 |  |  |  |
| Nc1nc(Cl)cc(Oc2ccccc2F)n1 [Compound 1545-0131] | 52.4 | 47.6 |  |  |  |
| COc1cc(/C=C2\SC(=S)N(c3ccc(O)cc3)C2=O)ccc1O [Compound 2189-0711] | 230 | 0 |  |  |  |
| CSC1=NSC2=NC(=O)/C(=C\c3ccc(Cl)cc3)C(=N)N12 [Compound C146-0181] | 67.1 | 32.9 |  |  |  |
| Cc1nc2c(C(=O)NCCC(C)C)cnn2c(O)c1Cc1ccccc1F [Compound C218-0295] | -86.7 | 91.7 |  |  |  |
| CSC1=NSC2=NC(=O)/C(=C\c3ccc(O)cc3)C(=N)N12 [Compound C146-0184] | 72.7 | 27.3 |  |  |  |
| Cc1nnc2c(Oc3ccc(Cl)cc3)nc3ccccc3n12 [Compound 5001-0261] | 114 | 0 |  |  |  |
| CCCCN1CCc2nc3c(ccc4ccccc43)c(O)c2C1 [Compound 3453-1352] | 75.7 | 24.3 |  |  |  |
| Cc1nc2c(ccc3ccccc32)c(O)c1CN1CCCC1 [Compound 3453-1335] | 66.9 | 33.1 |  |  |  |
| COc1cc(C2NC(C(=O)O)CS2)ccc1O (stereo not drawn) [Compound K085-0027] | 116 | 0 |  |  |  |
| O=C(c1cc(-c2ccc(Cl)s2)nc2ccccc12)N1CCOCC1 [Compound C136-0215] | 156 | 0 |  |  |  |
| O=C(NCc1ccco1)c1cc(Sc2cccc(Cl)c2)nc2ccccc12 [Compound K784-7215] | 60.7 | 39.3 |  |  |  |

| SMILES | remaining activity at 100 µM (WT-TTR 7.2 μM) [%] | inhibition at 100 µM (WT-TTR 7.2 μM) [%] | remaining activity at 50 µM [1] [%] | remaining activity at 50 µM [%] | IC50 (Table 3, WT-TTR 7.2 μM, read-out: IC50) [µM] |
| --- | --- | --- | --- | --- | --- |
| CCN1C(=O)/C(=C/c2ccc(N(CC)CC)cc2O)SC1=S [Compound 1996-0170] | 177 | 0 |  |  |  |
| O=C1CSC(c2ccc(Cl)cc2Cl)N1c1ccc(Cl)cc1 (stereo not drawn) [Compound 8004-9890] | 20.3 | 79.7 |  |  |  |
| COc1cc(CO)ccc1Oc1ccc([N+](=O)[O-])cc1 [Compound 15] |  |  | 89.5 |  |  |
| CSC1=NSC2=NC(=O)/C(=C\c3ccc[nH]3)C(=N)N12 [Compound C146-0661] | 202 | 0 |  |  |  |
| Cn1c(=O)c2c(nc(Oc3ccc(-n4cnnn4)cc3)n2C)n(C)c1=O [Compound 3615-0252] | 155 | 0 |  |  |  |
| Cc1nc2ccc(Cl)cc2c(O)c1CN1CCCC1 [Compound 4358-1240] | 81.8 | 18.2 |  |  |  |
| O=C(CSc1nccn1-c1cccc(Cl)c1)Nc1cccc2ccccc12 [Compound C262-0464] | 122 | 0 |  |  |  |
| Oc1ccc(Nc2nc(-c3ccc(Cl)cc3)nc3ccccc23)cc1 [Compound 5847-1646] | 96 | 4.06 |  |  |  |
| COc1ccc(C2NC(C(=O)O)CS2)cc1OC (stereo not drawn) [Compound K085-0007] | 129 | 0 |  |  |  |
| Cc1ccc(/C=c2/sc3nc4ccccc4n3c2=O)cc1 [Compound 3062-0586] | 125 | 0 |  |  |  |
| Cn1ncc(/N=C/c2ccccc2O)c1C(=O)N1CCOCC1 [Compound 2019-0006] | 50 | 50 |  |  |  |
| Cc1ccc2nc(NC(=O)c3ccccc3O)sc2c1 [Compound 1300-0073] | 368 | 0 |  |  |  |
| COc1cc(C(=O)O)ccc1Oc1ccc([N+](=O)[O-])cc1[N+](=O)[O-] [Compound 21] |  |  |  | 48 | 20 |
| O=C1/C(=C\c2ccco2)SC(=S)N1c1cccc(F)c1 [Compound 2027-0159] | 340 | 0 |  |  |  |
| NN1C(=O)/C(=C\c2ccc(Cl)cc2)NC1=S [Compound C249-0056] | 131 | 0 |  |  |  |
| Nc1nc(F)cc(Oc2ccc(F)cc2)n1 [Compound 1544-0071] | 84 | 16 |  |  |  |
| FC(F)(F)c1cccc(NC(=S)N(CCCN2CCCCC2)Cc2cccs2)c1 [Compound C087-1176] | 86.7 | 13.3 |  |  |  |
| O=Cc1ccc(Oc2ccccc2)c(O)c1 [Compound 2] |  |  |  | 112 |  |
| O=C(O)c1cccc(-c2ccc(/C=C3\SC(=S)N(c4cccc(C(F)(F)F)c4)C3=O)o2)c1 [Compound 2027-0438] | 449 | 0 |  |  |  |
| Clc1ccc2nc(-c3ccc(Cl)s3)c(NC3CCCCC3)n2c1 [Compound C273-0206] | 138 | 0 |  |  |  |

| SMILES | remaining activity at 100 µM (WT-TTR 7.2 μM) [%] | inhibition at 100 µM (WT-TTR 7.2 μM) [%] | remaining activity at 50 µM [1] [%] | remaining activity at 50 µM [%] | IC50 (Table 3, WT-TTR 7.2 μM, read-out: IC50) [µM] |
| --- | --- | --- | --- | --- | --- |
| Oc1ccc(-c2nnc(S)o2)cc1 [Compound 0350-0159] | 19.2 | 80.8 |  |  |  |
| O=C(O)CCc1nc(-c2cccs2)no1 [Compound C066-2523] | 32.1 | 67.9 |  |  |  |
| Oc1ccc(-c2nc3ncccn3c2Nc2ccc(Cl)cc2)cc1 [Compound C239-0727] | 135 | 0 |  |  |  |
| Cc1ccccc1C1=N/C(=C\c2sccc2C)C(=O)O1 [Compound 1989-9396] | 115 | 0 |  |  |  |
| O=C(NC(c1cccc([N+](=O)[O-])c1)c1cc(Cl)c2cccnc2c1O)c1cccnc1 (stereo not drawn) [Compound K839-0117] | 72.8 | 27.2 |  |  |  |
| COc1ccc(NC(=S)N(CCCN2CCOCC2)Cc2cccnc2)cc1 [Compound C087-0811] | 98.6 | 1.4 |  |  |  |
| COc1cc(CO)ccc1Oc1ccccc1 [Compound 3] |  |  |  | 61.2 |  |
| COc1cc(C=O)ccc1Oc1ccc([N+](=O)[O-])cc1[N+](=O)[O-] [Compound 16] |  |  | 66 |  |  |
| COC(=O)c1sc(=S)n(-c2ccc(Cl)c(Cl)c2)c1N [Compound K286-4369] | 84.5 | 15.6 |  |  |  |
| Oc1ccccc1-c1nnc(S)o1 [Compound 0350-0160] | 13.8 | 86.2 |  |  |  |
| NC(=O)CSc1ncc(-c2ccc(Cl)cc2)[nH]1 [Compound C290-0041] | 39.2 | 60.8 |  |  |  |
| O=C(Nc1nnc[nH]1)c1c(Cl)ccc(Cl)c1Cl [Compound 3232-0353] | 11.5 | 88.5 |  |  |  |
| COc1cccc(C(=O)NC(c2ccccc2)c2cc(Cl)c3cccnc3c2O)c1 (stereo not drawn) [Compound K839-0116] | 34.7 | 65.3 |  |  |  |
| CCOC(=O)c1sc(=S)n(-c2cccc3ccccc23)c1N [Compound R052-0949] | 146 | 0 |  |  |  |
| Cc1nc2c(C(=O)NCc3ccc(F)cc3)cnn2c(O)c1Cc1ccccc1F [Compound C218-0299] | 46.9 | 53.1 |  |  |  |
| COc1cc(COC(C)=O)ccc1Oc1ccc([N+](=O)[O-])cc1[N+](=O)[O-] [Compound 20] |  |  | 69 |  |  |
| Cc1ccc(C2NC(C(=O)O)CS2)cc1 (stereo not drawn) [Compound K085-0026] | 14.3 | 85.7 |  |  |  |
| O=C1/C(=C\c2cccc(O)c2)SC(=S)N1c1ccc(F)cc1 [Compound 3232-1704] | 309 | 0 |  |  |  |
| O=C1/C(=C/c2ccc(Cl)cc2Cl)SC(=S)N1c1ccc(O)cc1 [Compound 2189-0835] | 291 | 0 |  |  |  |
| CCC(=O)NC(c1ccc2c(c1)OCO2)c1cc(Cl)c2cccnc2c1O (stereo not drawn) [Compound K839-0017] | 41.9 | 58.1 |  |  |  |
